Data set [1] is described as follows: Non-specific cytotoxicity assay (MTT), mouse spleen lymphocytes. As to conditions: BALB/c, mouse, mouse whole spleen lymphocytes. In kind it is cell-based. The method, then: BALB/c mice were sacrificed by cervical dislocation, and spleens were aseptically excised to prepare whole spleen lymphocytes. The cells were adjusted to the required concentration. The compound concentrations started at 250 μM and was diluted with a 4-fold gradient to obtain 10 concentrations: 250, 62.5, 15.625, 3.906, 0.977, 0.244, 0.061, 0.015, 0.004 and 0.001 μM.
A suspension of mouse spleen lymphocytes was inoculated into a 96-well plate at 8×10^5/well, and the above 10 concentration gradients of the compound were added. A corresponding cell control (i.e. spleen lymphocyte culture system without compound) and a RPMI 1640 culture medium background control (blank culture medium control) were set up. The cells were cultured in a 37° C., 5% CO2 incubator for 48 hours. Four hours before the end of the culture, 20 μl of 5 mg/ml MTT solution was added, and the reaction continued until the end of the culture (i.e. the aforementioned 48 hours). The supernatant was aspirated and discarded, 200 μl DMSO was added to each well to dissolve the crystals. […]. The absorbance value was measured at […] with a microplate reader (Spectra Max 190, Molecular Devices).

Data set [2] deals with mouse whole spleen lymphocytes (ConA-induced T cell activation and proliferation). Kind of data set: ConA-induced lymphocyte proliferation assay (3H-thymidine). It counts as cell-based. As to conditions: Mus musculus, Lymphocyte, read-out: ConA IC50. How it is done:
(§1) BALB/c mice were sacrificed by cervical dislocation, and spleens were aseptically excised to prepare whole spleen lymphocytes. The cells were adjusted to the required concentration.
(§2) A suspension of mouse spleen lymphocytes was inoculated into a 96-well plate at 5×10^5/well, and ConA (final concentration: 1 μg/ml) or LPS (final concentration: 10 μg/ml) and the above 10 concentration gradients of the compound were added. Corresponding cell control wells without ConA and LPS, as well as medicament-free stimulated control wells, were set up. The cells were cultured in a 37° C., 5% CO2 incubator for 48 hours. Eight hours before the end of the culture, ^3H-thymidine was added, and the culture continued until the end of the experiment (i.e., the aforementioned 48 hours). The cells were collected onto glass fiber membranes using a cell collector.
(§3) ConA and LPS, as mitogens, stimulated proliferation and differentiation of T and B lymphocytes, respectively. This process is similar to the activation process of lymphocytes in vivo. Therefore, mitogen-induced lymphocyte proliferation is commonly used as an indicator to evaluate functionality of lymphocytes.

Data set [3] deals with mouse whole spleen lymphocytes (LPS-induced B cell activation and proliferation). Kind of data set: LPS-induced lymphocyte proliferation assay (3H-thymidine). In kind it is cell-based. The conditions noted are these: Mus musculus, Lymphocyte, read-out: LPS IC50. How it is done:
as §1, §2, §3

Data set [4] relates to RAW264.7 cells. Kind of data set: Non-specific cytotoxicity assay (MTT), RAW264.7. It counts as cell-based, mouse. As to conditions: 48 hours. How it is done:
RAW264.7 cells were inoculated into a 96-well plate at 1×10^5/well and allowed to adhere to the wall for 6 hours in a 37° C., 5% CO2 incubator. […] A corresponding solvent control (cell control) and a culture medium background control (blank control) were set up. The cells were cultured in a 37° C., 5% CO2 incubator for 48 hours. Fifteen minutes before the end of the culture, 20 μl of 5 mg/ml MTT was added. At the end of the culture, the supernatant was aspirated and discarded, 200 μl DMSO was added to dissolve the crystals.

The test system of data set [5] is TNF-α. Kind of data set: TNF-α production by LPS-induced RAW264.7 cells (ELISA). In kind it is cell-based, mouse. The method, then: (§4) RAW264.7 cells were inoculated into a 96-well plate at 1×10^5/well and allowed to adhere to the wall for 6 hours in a 37° C., 5% CO2 incubator. […] After the cells adhered to the wall, the stimulant LPS (final concentration: 10 μg/ml) and the gradient-diluted compounds were added. A corresponding stimulation control and a cell control (without stimulation) were set up. After the end of the culture, the cell culture supernatants were collected, and the levels of TNF-α, IL-1β and IL-6 were measured by ELISA.

In data set [6] the test system is IL-1β. The experiment in a line: IL-1β production by LPS-induced RAW264.7 cells (ELISA). In kind it is cell-based, mouse. How it is done:
as §4

Data set [7] deals with IL-6. Kind of data set: IL-6 production by LPS-induced RAW264.7 cells (ELISA). It counts as cell-based, mouse. How it is done: as §4

Results on two molecules are retold here after patent publication US20250332154A1, “USE OF NAPHTHOQUINE PHOSPHATE IN PREPARATION OF A MEDICAMENT FOR TREATING AUTOIMMUNE DISEASES” (SHANGHAI PHARMACEUTICALS INDUSTRY CO., LTD, priority 2022, published 2025).

Molecule `CCN(CC)CCCC(C)Nc1ccnc2cc(Cl)ccc12` (stereo not shown) [Chloroquine Phosphate] returned a CC50 at 48 h in data set [1] of 26.9 µM. Further, the IC50 in data set [2] is 14.3 µM; in data set [3] it was 15.1 µM.
In data set [4], Chloroquine Sulfate registered a CC50 of 26.6 µM. Moreover, the IC50 in data set [5] (LPS 10 μg/ml, RAW264.7) came to 32.6 µM; in data set [6] (LPS 10 μg/ml, RAW264.7, read-out: IB-1β IC50), 2.72 µM; in data set [7] (LPS 10 μg/ml, RAW264.7), 14.7 µM. Moreover, in data set [5] (LPS-induced RAW264.7, in words), the “production of TNF-α” value was “no significant effect”. Further, the “production of LPS-induced IL-1β” value in data set [6] (RAW264.7, in words) is recorded as “significantly inhibited”. In addition, in data set [7] (LPS-induced RAW264.7, in words), the “production of IL-6” value is reported as “no significant effect”.
